Laboratory results: patent US9815851B2, “Pyrrolo carboxamides as modulators of orphan nuclear receptor RAR-related orphan receptor-gamma (RORγ, NR1F3) activity and for the treatment of chronic inflammatory and autoimmune diseases” (PHENEX PHARMACEUTICALS AG, priority 2011, dated 2017)
Where two headings read alike, the source gives them in different places.

Legend:
[1] = target: T1, RORγ ligand binding domain (LBD) (Homo sapiens, UniProt P51449); experiment: TR-FRET Activity Assay (ligand sensing, RORγ-LBD / coactivator peptide interaction, LANCE); format: biochemical
T1 construct: made in house; host or cells: E. coli BL-21 (BL3), vector pDEST15
T1 sequence (P51449 269-508 limits assumed): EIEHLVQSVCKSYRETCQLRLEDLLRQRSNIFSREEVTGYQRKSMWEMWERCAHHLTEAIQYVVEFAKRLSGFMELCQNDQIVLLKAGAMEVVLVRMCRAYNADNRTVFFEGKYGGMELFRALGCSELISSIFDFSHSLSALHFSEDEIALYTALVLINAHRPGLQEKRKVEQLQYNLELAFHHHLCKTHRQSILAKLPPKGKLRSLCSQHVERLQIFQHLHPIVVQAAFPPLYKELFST

RORγ = target: T2, RORγ (UniProt P51449); experiment: RORγ Gal4 Reporter Gene Assay in 293T cells (firefly and renilla luciferase); format: cell-based, human
T2 sequence (P51449 1-518): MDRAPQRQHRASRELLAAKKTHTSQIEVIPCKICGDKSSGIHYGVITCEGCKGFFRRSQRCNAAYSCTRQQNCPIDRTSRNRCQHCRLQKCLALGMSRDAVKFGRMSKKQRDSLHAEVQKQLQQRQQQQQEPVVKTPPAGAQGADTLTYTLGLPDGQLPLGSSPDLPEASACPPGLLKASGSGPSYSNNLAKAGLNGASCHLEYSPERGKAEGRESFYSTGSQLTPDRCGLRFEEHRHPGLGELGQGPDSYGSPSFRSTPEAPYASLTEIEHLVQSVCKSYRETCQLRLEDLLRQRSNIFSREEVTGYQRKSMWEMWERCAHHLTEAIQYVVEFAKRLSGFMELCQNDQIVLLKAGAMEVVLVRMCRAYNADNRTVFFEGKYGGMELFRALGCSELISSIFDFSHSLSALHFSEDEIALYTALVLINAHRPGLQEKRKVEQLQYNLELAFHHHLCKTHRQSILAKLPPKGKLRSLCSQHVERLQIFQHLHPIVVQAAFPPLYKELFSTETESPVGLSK

[2] = first value of the cell FRET/FF/REN, TR-FRET activity assay, read-out: pIC50 (FRET) (converted)
[3] = second value of the cell, Gal4 reporter gene assay in 293T cells, firefly luciferase
[4] = third value of the cell, Gal4 reporter gene assay in 293T cells, renilla normalised luciferase

Cc1c(C(=O)NCC(C)(C)O)cc(-c2ccc(S(=O)(=O)NC(C)(C)C)c3ccccc23)n1CC1CCCCC1 [17/264]
IC50 [1, 2]: 631 nM | pIC50 (FF) (RORγ; [3]): 7.9 | pIC50 (REN) (RORγ; [4]): 7.7

Cc1c(C(=O)NCC(C)(C)C(=O)NCCCCO)cc(-c2cc(C(C)(C)C)c3c(c2)C2(CCO3)CC2)n1CC1CCCCC1 [11/7]
IC50 [1, 2]: 251 nM | pIC50 (FF) (RORγ; [3]): 7.1 | pIC50 (REN) (RORγ; [4]): 7.2

COC1CN(C(=O)c2cc(-c3cc(C(C)(C)C)cc(C(C)(C)C)c3)n(CC3CCCCC3)c2C)C1 [1/8]
IC50 [1]: 316 nM | pIC50 (FF) (RORγ): 6.5/6.4/6.3 | pIC50 (REN) (RORγ): 6.5/6.4/6.3

Cc1c(C(=O)NCCc2noc(=O)[nH]2)cc(-c2ccc(S(=O)(=O)NC(C)(C)C)c(C(F)(F)F)c2)n1CC1CCCCC1 [17/332]
IC50 [1, 2]: 200 nM | pIC50 (FF) (RORγ; [3]): 6.4 | pIC50 (REN) (RORγ; [4]): 6.4

Cc1c(C(=O)NCC2(O)CCOCC2)cc(-c2cc(C(C)(C)O)cc(C3(C)CC3)c2)n1CC1CCCCC1 [17/314]
IC50 [1, 2]: 1000 nM | pIC50 (FF) (RORγ; [3]): 7.2 | pIC50 (REN) (RORγ; [4]): 7.1

Cc1c(S(=O)(=O)NC(C)(C)C)ccc(-c2cc(C(=O)NCCC(C)(C)C(=O)O)c(C)n2CC2CCCCC2)c1OC(F)F [17/284]
IC50 [1, 2]: 1260 nM | pIC50 (FF) (RORγ; [3]): 7.3 | pIC50 (REN) (RORγ; [4]): 7.3

Cc1c(C(=O)NCCCCCS(N)(=O)=O)cc(-c2cc(C(C)(C)C)c3c(c2)C2(CCO3)CC2)n1CC1CCCCC1 [17/114]
IC50 [1, 2]: 631 nM | pIC50 (FF) (RORγ; [3]): 6.5 | pIC50 (REN) (RORγ; [4]): 6.4

Cc1c(C(=O)N[C@H]2C[C@H](C(=O)O)C2)cc(-c2ccc(S(=O)(=O)NC(C)(C)C)c3c2OCCO3)n1CC1CCCCC1 [17/279]
IC50 [1, 2]: 3160 nM | pIC50 (FF) (RORγ; [3]): < 4.7 | pIC50 (REN) (RORγ; [4]): < 4.7

Cc1c(C(=O)N2CCOC(C(=O)O)C2)cc(-c2ccc(S(=O)(=O)NC(C)(C)C)c(C(F)(F)F)c2)n1CC1CCCCC1 (stereo not drawn) [17/137]
IC50 [1, 2]: 501 nM | pIC50 (FF) (RORγ; [3]): < 4.7 | pIC50 (REN) (RORγ; [4]): < 4.7

COC(C)(C)c1cc(-c2cc(C(=O)NC3CCOCC3)c(C)n2CC2CCCCC2)cc(C(C)NC(C)C)c1 (stereo not drawn) [17/303]
IC50 [1, 2]: 3980 nM | pIC50 (FF) (RORγ; [3]): 6.3 | pIC50 (REN) (RORγ; [4]): 6.4

Cc1c(C(=O)NCCc2nn[nH]n2)cc(-c2ccc(S(=O)(=O)NC(C)(C)C)c(C(F)(F)F)c2)n1CC1CCCCC1 [17/335]
IC50 [1, 2]: 316 nM | pIC50 (FF) (RORγ; [3]): 5.5 | pIC50 (REN) (RORγ; [4]): 5.6

Cc1c(C(=O)NC2CSC2)cc(-c2cc(C(C)(C)C)cc(C(C)(C)C)c2)n1CC1CCCCC1 [1/14]
IC50 [1]: 2000 nM | pIC50 (FF) (RORγ): 5.7/6.5/6.6 | pIC50 (REN) (RORγ): 5.7/6.5/6.6

Cc1c(C(=O)NC2CCOCC2)cc(-c2ccc(S(=O)(=O)N[C@H](C)C(F)(F)F)c(C(F)(F)F)c2)n1CC1CCCCC1 [17/142]
IC50 [1, 2]: 398 nM | pIC50 (FF) (RORγ; [3]): 7.4 | pIC50 (REN) (RORγ; [4]): 7.6

Cc1c(C(=O)N[C@H]2C[C@H](C(=O)O)C2)cc(-c2ccc(S(=O)(=O)NC(C)(C)C)c(OC(F)(F)F)c2)n1CC1CCCCC1 [17/174]
IC50 [1, 2]: 200 nM | pIC50 (FF) (RORγ; [3]): 7.1 | pIC50 (REN) (RORγ; [4]): 7.1

CC(C)(C)NS(=O)(=O)c1ccc(-c2cc(C(=O)NCCC(C)(C)C(=O)O)c(Cl)n2CC2CCCCC2)cc1C(F)(F)F [Example 22, 4-(5-(4-(N-(tert-Butyl)sulfamoyl)-3-(trifluoromethyl)phenyl)-2-chloro-1-(cyclohexylmethyl)-1H-pyrrole-3-carboxamido)-2,2-dimethylbutanoic acid]
IC50 [1, 2]: 398 nM | pIC50 (FF) (RORγ; [3]): 7.5 | pIC50 (REN) (RORγ; [4]): 7.6

Cc1c(C(=O)NC2COC2)cc(-c2cc(C(C)(C)C)cc(C(C)(C)C)c2)n1CC1Cc2ccccc2C1 [1/118]
IC50 [1, 2]: 631 nM | pIC50 (FF) (RORγ; [3]): 6.5 | pIC50 (REN) (RORγ; [4]): 6.6

Cc1c(C(=O)NC2CCS(=O)(=O)CC2)cc(-c2ccc(S(=O)(=O)NC(C)(C)C)c3ccccc23)n1CC1CCCCC1 [17/263]
IC50 [1, 2]: 316 nM | pIC50 (FF) (RORγ; [3]): 7.9 | pIC50 (REN) (RORγ; [4]): 8.0

Cc1c(C(=O)NC2CCOCC2)cc(-c2ccc(S(=O)(=O)NC(C)(C)C)c3ncccc23)n1CC1CCCCC1 [17/283]
IC50 [1, 2]: 1000 nM | pIC50 (FF) (RORγ; [3]): 6.7 | pIC50 (REN) (RORγ; [4]): 6.8

Cc1c(C(=O)NC2CCOCC2)cc(-c2ccc(S(=O)(=O)NC3(C#N)CC3)c(C(F)(F)F)c2)n1CC1CCCCC1 [17/144]
IC50 [1, 2]: 501 nM | pIC50 (FF) (RORγ; [3]): 7.7 | pIC50 (REN) (RORγ; [4]): 7.7

Cc1c(C(=O)NCC(=O)N(C)C)cc(-c2cc(C(C)(C)C)cc(C(C)(C)C)c2)n1CC1CCCCC1 [1/6]
IC50 [1]: 631 nM | pIC50 (FF) (RORγ): 6.2/6.7/6.7 | pIC50 (REN) (RORγ): 6.2/6.7/6.7

Cc1c(C(=O)NC2CCOCC2)cc(-c2ccc(S(=O)(=O)NC(C)C(C)(C)O)c(C(F)(F)F)c2)n1CC1CCCCC1 (stereo not drawn) [17/146]
IC50 [1, 2]: 1000 nM | pIC50 (FF) (RORγ; [3]): 7.4 | pIC50 (REN) (RORγ; [4]): 7.5

Cc1c(C(=O)NCC(C)(C)NC(=O)C(C)O)cc(-c2cc(C(C)(C)C)c3c(c2)C2(CCO3)CC2)n1CC1CCCCC1 (stereo not drawn) [17/123]
IC50 [1]: 3160 nM | pIC50 (FF) (RORγ): 5.5/7.0/7.0 | pIC50 (REN) (RORγ): 5.5/7.0/7.0

COC(C)(C)c1cc(-c2cc(C(=O)NC3CCOCC3)c(C)n2CC2CCCCC2)cc(C2(C)CC2)c1 [1/44]
IC50 [1]: 501 nM | pIC50 (FF) (RORγ): 6.3/7.4/7.3 | pIC50 (REN) (RORγ): 6.3/7.4/7.3

Cc1c(C(=O)N[C@H]2C[C@H](C(=O)O)C2)cc(-c2ccc(S(=O)(=O)NCC(F)(F)F)c3ccccc23)n1CC1CCCCC1 [17/271]
IC50 [1, 2]: 794 nM | pIC50 (FF) (RORγ; [3]): 7.1 | pIC50 (REN) (RORγ; [4]): 7.1

Cc1c(C(=O)NCC2(O)CCS(=O)(=O)CC2)cc(-c2ccc(S(=O)(=O)NC(C)(C)C)c3ccccc23)n1CC1CCCCC1 [17/268]
IC50 [1, 2]: 794 nM | pIC50 (FF) (RORγ; [3]): 7.7 | pIC50 (REN) (RORγ; [4]): 7.8

Cc1c(C(=O)NC2CCOCC2)cc(-c2ccc(S(=O)(=O)NC(C)(C)C)c(C(C)C)c2)n1CC1CCCCC1 [17/226]
IC50 [1, 2]: 316 nM | pIC50 (FF) (RORγ; [3]): 8.2 | pIC50 (REN) (RORγ; [4]): 8.2

Cc1c(C(=O)NCCC(C)(C)C(=O)O)cc(-c2ccc(S(=O)(=O)N[C@@H](C)C(F)(F)F)c(C(F)(F)F)c2)n1CC1CCCCC1 [17/150]
IC50 [1, 2]: 501 nM | pIC50 (FF) (RORγ; [3]): 8.0 | pIC50 (REN) (RORγ; [4]): 8.2

Cc1c(C(=O)NC2CCOCC2)cc(-c2cc(Cl)c(S(=O)(=O)NC(C)(C)C)c(C(F)(F)F)c2)n1CC1CCCCC1 [17/113]
IC50 [1, 2]: 501 nM | pIC50 (FF) (RORγ; [3]): 6.8 | pIC50 (REN) (RORγ; [4]): 6.8

Cc1c(C(=O)NCC(C)(C)C(N)=O)cc(-c2ccc(S(=O)(=O)NC(C)(C)C)c(C(F)(F)F)c2)n1CC1CCCCC1 [17/202]
IC50 [1, 2]: 316 nM | pIC50 (FF) (RORγ; [3]): 7.7 | pIC50 (REN) (RORγ; [4]): 7.7

Cc1c(C(=O)NC2CCOCC2)cc(-c2ccc(-c3cnc(NC(C)C)nc3)c(C(C)(C)C)c2)n1CC1CCCCC1 [26/4]
IC50 [1, 2]: 3980 nM | pIC50 (FF) (RORγ; [3]): 6.6 | pIC50 (REN) (RORγ; [4]): 6.8

Cc1c(C(=O)NC2CCOCC2)cc(-c2ccc(S(=O)(=O)NC(C)(C)C)c(Cl)c2Cl)n1CC1CCCCC1 [17/276]
IC50 [1]: 158 nM | pIC50 (FF) (RORγ): 6.8/7.9/8.0 | pIC50 (REN) (RORγ): 6.8/7.9/8.0

Cc1c(C(=O)NCC2(O)CCOCC2)cc(-c2ccc(S(=O)(=O)NC(C)(C)C)c(C(F)F)c2)n1CC1CCCCC1 [17/129]
IC50 [1]: 200 nM | pIC50 (FF) (RORγ): 6.7/8.0/8.0 | pIC50 (REN) (RORγ): 6.7/8.0/8.0

Cc1c(C(=O)NCC(C)(C)O)cc(-c2cc(OC(F)(F)F)cc(C3(C)CC3)c2)n1CC1CCCCC1 [17/348]
IC50 [1, 2]: 316 nM | pIC50 (FF) (RORγ; [3]): 6.9 | pIC50 (REN) (RORγ; [4]): 7.0
